The nature of series [1]: Body weight in cisplatin induced neuropathy rat model. Type of series: in vivo. How it is done:
(c) 4 treated-cisplatin-intoxicated groups (n=10) consisting of animals receiving daily SC injections of IL-6 compound at 4 different doses: 0.3, 1, 3, 10 μg/kg; and (d) a 4-methylcatechol (4-MC)-treated, cisplatin-intoxicated group (n=10) receiving a daily IP injection of 4-MC at 10 μg/kg. […] The drug was diluted in 0.9% sterile aqueous solution of sodium chloride.

The subject of series [2] is cisplatin induced neuropathy. The series is described as follows: Hot plate test in cisplatin-treated rats, co-administration. Type of series: in vivo, rat. How it is done:
The rat was placed inside a glass cylinder of 17 cm height and 21 cm diameter on a heating-plate maintained at 52° C. (Medite OTS 40, Microm, Francheville, Rhône, France). The animal behavior was observed, particularly the licking of a foot and the adjusted leap. The latency before licking a foot or before jumping to escape the heat (adjusted leap) was recorded. The time needed to feel the thermal pain is related to the thermal sensitivity and tends to increase when thermal sensitivity is altered.
A general note: Hot-plate and tail-flick tests time the reaction to a heat stimulus.

Series [3] relates to cisplatin induced neuropathy. Type of series: in vivo, rat. The method, then:
Electrophysiological monitoring in cisplatin-induced neuropathy model was carried out as described in Example 17. The objective was to assess the effect of co-administration with IL-6 in cisplatin-induced loss of fiber/nerve function.
(§1) Electrophysiological recordings were performed using a Neuromatic 2000M electromyograph (EMG) (Dantec, Les Ulis, France). Rats were anaesthetized by IP injection of 60 mg/kg ketamine chlorhydrate (Imalgene 500®, Rhône Merieux, Lyon, France). The normal body temperature was maintained around […] with a heating lamp and verified using a contact thermometer (Quick, Bioblock Scientific, Illkirch, France) placed on the tail surface.
(§2) Compound muscle action potential (CMAP) of M wave signal (or electrically evoked muscle potential) was recorded in the gastrocnemius muscle after stimulation of the sciatic nerve. M wave reflects the current developed during the action potential of muscle fibers. A reference electrode and an active needle were placed in the hind paw. A ground needle was inserted on the lower back of the rat. Sciatic nerve was stimulated with a single 0.2 ms pulse at supramaximal intensity. The […] of the motor wave was recorded and expressed in ms.
(§3) Sensitive nerve conduction velocity (SNCV) was also recorded. The tail skin electrodes were placed as follows: a reference needle inserted at the base of the tail and an anode needle placed 30 mm away from the reference needle toward the extremity of the tail. A ground needle electrode was inserted between the anode and reference needles. The caudal nerve was stimulated with a series of 20 pulses (for 0.2 ms) at an intensity of 12.8 mA. The velocity was expressed in m/s.
(§4) H-wave reflex was recorded in the hind footpad muscle after stimulation of the sciatic nerve. A reference electrode and a ground needle were placed on the lower back of the rat. The sciatic nerve was stimulated with a single 0.2 ms pulse at supramaximal intensity. The amplitude (mV) of H wave and the proportion of animal lacking H wave response were the parameters studied.

Series [4] concerns cisplatin induced neuropathy. The series is described as follows: Morphometric analysis, therapeutic treatment of established cisplatin neuropathy. Type of series: in vivo, rat. Conditions: for proportion of degenerated fibers versus control: p≦0.05. An excerpt:
The number of degenerated and non-degenerated fibers on the entire surface of each nerve section was counted by an operator in a blinded fashion. All the results (except the data expressed as ratio value) were reported as percentage of changes in reference to the control value.

Series [5] concerns breast (MCF7) tumor cell line. The series is described as follows: Cell survival by acid phosphatase activity assay, MCF7. Type of series: cell-based, human. The method, then:
The human lung (SK-MES1) and breast (MCF7) tumor cell lines were obtained from ATCC. The cell lines were maintained in Dulbecco's MEM medium (Gibco; Invitrogen, Cergy-Pontoise, France, ref. 41965039) supplemented with 1% antibiotic/antimicotic mixture solution (Gibco, ref. 15240062), and 10% heat-inactivated foetal bovine serum (Gibco, ref. F7524, batch 92K3387). The cells were amplified in Nunc tissue culture flasks (80 cm2) in a humidified incubator at 37° C. with 5% CO2 in 95% air. Cultures were sub-cultured twice a week.
The enzymatic activity has been proven to be proportional to the number of living cells (Ueda et al.; 1994).
Three days after the last replication, tumor cells were seeded in 96 well-plates (TPP, VWR International, Fontenay-sous-bois, France) at a density of 1,500 cells (MCF7 line) or 3,000 cells (SK-MES1 line) per well, in a total volume of 100 μl/well and incubated overnight in a humidified incubator at 37° C. with 5% CO2 in 95% air. […] IL-6 (in buffer solution at 1.8 mg/ml, PH: 7) was immediately added at concentrations of 0, 3, 12, 50 or 200 ng/ml.
Four days after the initiation of the intoxication, acid phosphatase activity (Example 21) in each cell culture was assessed.
After removal of the culture medium, cells were rinsed with phosphate-buffered saline (PBS, Gibco, ref. 14190-094) and further incubated for 90 min at 37° C. in 100 μl of buffer containing 0.1 mol/l sodium acetate (pH 5.5), 0.1% Triton X100 (Sigma, ref. T9284) and 10 mmol/l p-nitrophenyl phosphate (Sigma, ref. N9389). Reaction was stopped by addition of 10 μl of 1 mol/l sodium hydroxide aqueous solution (Laboratoire de Produit Chimiques de la Robertsau, Strasbourg, France; ref. 28.252.293). Absorbance of the colored solution was measured at 405 nm in a microplate reader (Labsystems Multiskan Bichromatic, EST-LAB, Strasbourg, France).
The results were expressed as percentage of optical density of the control cell cultures. The heights of the columns represent mean±SEM of percentages of 5-6 wells from two independent cultures.

Series [6] deals with vincristine induced neuropathy. The series is described as follows: Electromyography (EMG) in vincristine-treated rats. Type of series: in vivo, rat. The method, then:
In parallel to behavioral tests, electrophysiological test as described in Example 17, were carried out to evaluate fiber/nerve function in vincristine-administered rats vis-à-vis rats co-administrated with IL-6.
as §1, §2, §3, §4

For series [7] the following is noted: patients with myelodysplastic syndromes and trombocytopenia; cited from earlier work.
For series [8] the following is noted: rodents; cited from earlier work.
Setting [9] is: cisplatin alone, 3 weeks after cessation of cisplatin.

Where two headings read alike, the source gives them in different places.

For `N.N.[Cl][Pt][Cl]` [cisplatin, Cis-dichlorodiamine platinum], in series [1] (cisplatin 2 mg/kg IP twice a week, 4 weeks, vehicle-treated), the “body weight lost at completion of cisplatin administration” value is given as “about 10%”. Besides, the “hot plate first reaction to heat versus control” value in series [2] (cisplatin alone, from 3 weeks) is given as “significant delayed first reaction to heat”. Besides, in series [3] (rat, in vivo), the “SNCV versus non-treated control” value is “significantly slow” and the “reduction of H wave amplitude” value is listed as “about 80%”. In series [4] (setting [9]), the “proportion of non-degenerated myelinated fibers versus control” value is reported as “lower” and the “proportion of degenerated fibers versus control” value is reported as “significantly higher”. Also, in series [4] (cisplatin alone, day 23), the “proportion of non-degenerated myelinated fibers versus control” value is listed as “lower” and the “proportion of degenerated fibers versus control” value is listed as “significant greater proportion of degenerated fibers”. Moreover, the myelin area entry in series [4] (cisplatin alone, day 44, p>0.05) was “slight but not significant reduction”. Moreover, in series [4] (cisplatin alone, up to day 23, not significant (p>0.05)), the “overall size of myelin versus control” value is listed as “slightly reduced”. Besides, the “decrease in cell survival versus control” value in series [5] (cisplatin (2.5 μM), carboplatin (25 μM), 4 days) is “about 50%”.

On to “IL-6: Recombinant human IL-6 produced in genetically engineered Chinese Hamster Ovary (CHO) cells”, for which the CMAP latency time entry in series [6] (IL-6 10 μg/kg SC daily with vincristine) was “fully preserved their CMAP latency time”. For the same compound, the “vincristine-induced CMAP latency” value in series [6] (IL-6 0.3-10 μg/kg SC daily, p<0.05) is “reduced”. Further, in series [6] (IL-6 1-10 μg/kg SC daily), the “SNCV in vincristine treated animals” value was “full restoration of SNCV”. Further, the “H wave amplitude preservation” value in series [6] (IL-6 1-10 μg/kg SC daily with vincristine) is recorded as “fully preserved the H wave amplitude”. Besides, the “protection against loss of M wave amplitude, duration” value in series [6] (IL-6 3-10 μg/kg SC daily with vincristine) is “stable throughout the experiment”. Moreover, in series [6] (IL-6 all doses tested (0.3-10 μg/kg SC daily)), the “prevention of vincristine-induced loss of M wave amplitude” value was “prevent vincristine-induced loss of M wave amplitude”. Besides, the “protection against vincristine-induced fiber/nerve function loss compared with 4-MC” value in series [6] (IL-6 vs 4-MC 10 μg/kg IP) was “confers better protection that 4-MC”. In addition, the “animal growth under cisplatin with IL-6” value in series [1] (IL-6 0.3, 1, 3, 10 μg/kg SC daily with cisplatin) is “marked inhibition of animal growth, regardless of IL-6 treatments undertaken”. The “delay of the first reaction to heat by cisplatin” value in series [2] (IL-6 10 μg/kg SC daily) is “fully prevented”; in series [2] (IL-6 0.3, 1, 3, 10 μg/kg SC daily, p≦0.05), “prevented/reduced delay of the first reaction to heat”. In addition, the “loss of H wave amplitude by cisplatin” value in series [3] (IL-6 10 μg/kg SC daily, throughout the experiment) is recorded as “fully prevented the loss of H wave amplitude”; in series [3] (IL-6 0.3, 1, 3, 10 μg/kg SC daily), “reduce/prevent the loss of H wave amplitude”. Besides, the “SNCV in cisplatin treated rats” value in series [3] (IL-6, especially at 3 and 10 μg/kg, after 5 weeks) was “improve SNCV”. The “prevention of cisplatin-induced loss of fiber/nerve function compared with 4-MC” value in series [3] (IL-6 vs 4-MC 10 μg/kg IP) is recorded as “more effective in preventing cisplatin-induced loss of fiber/nerve function than 4-MC”. Moreover, the “cisplatin-induced myelin sheath thinning” value in series [4] (IL-6 10 μg/kg) is given as “appeared to reverse cisplatin-induced myelin sheath thinning”. The “percentage of degenerated fibers, significance” value in series [4] (IL-6 10 μg/kg) is “significant effect”. Also, in series [4] (IL-6 treatment), the large/small fibers ratio result is given as “slight increase”. Besides, in series [4] (IL-6 treatment (3 and 10 μg/kg)), the “percentage of degenerated fibers” value is “significantly reduced the percentage of degenerated fibers”. In addition, the “restoring myelin and fiber degeneration compared with 4-MC” value in series [4] (IL-6 vs 4-MC) is on record as “more efficient than 4-MC”. Besides, in series [5] (IL-6 3, 12, 50 or 200 ng/ml, p>0.05), the “survival of vincristine or cisplatine or carboplatin treated cells in the presence of IL-6” value is on record as “did not change significantly”. Besides, the “effect of taxol on cell survival with IL-6” value in series [5] (IL-6 3-200 ng/ml, p>0.05) was “did not change the effect of taxol”. Also, the “survival of cells intoxicated with carboplatin and taxol in the presence of IL-6” value in series [5] (p>0.05) is given as “remained unchanged”. Besides, in series [7], the maximum dose tolerated was 3.75 µg/kg/day. Further, in series [8], the “active dose as thrombopoietic factor” value is recorded as “above 500 μg/kg”.

(Values after US7951359B2, “Compositions and methods for therapy or prevention of chemotherapy-induced neuropathy” (Merck Serono SA, priority 2004, dated 2011).)
